{
  "source": "patent US8119589B2",
  "about": "“Modulation of CD4+ T cell responses by a tick saliva protein, Salp15 and polypeptides derived therefrom” (University of North Carolina at Charlotte, priority 2004, dated 2012)",
  "key": {"R-EAE in SJL/J mice": {"tested_on": "R-EAE in SJL/J mice", "assay": "Relapsing-EAE model in PLP139-151 immunized SJL mice", "format": "in vivo, mouse", "method": "SJL/J mice in groups of 18 are injected i.p. with 200 μg of PLP peptide 139-151 (HSLGKWLGHPDKF; SEQ ID NO: 15) (Research Genetics, Huntsville, Ala., U.S.A.). Please note that the original Cysteine has been substituted by serine for stability purposes. […] One group of mice receives daily injections of 50 μg of recombinant Salp15 produced in a Drosophila expression system, starting day 10 after immunization. This regime permits an efficient in vivo activation of PLP139-151-specific CD4^+ T cell activation. Since Salp15 has no effect on effector CD4^+ T cells (Anguita et al., 2002.), its function is expected to be circumscribed to the activation of neoreactive CD4^+ T cells. […]\nAt days 12 (including the 3 control mice treated with Salp15 over the course of the immunization), 14, 17, 20, 30 and 60 post-infection, 3 mice from each group are sacrificed and analyzed as follows: splenic CD4^+ T cells are purified by negative selection using biotinylated antibodies against CD8a, Ly6G, Mac-I, B220, class II (I-A^k and I-E^k) and panNK molecules (BD Biosciences Pharmingen, San Jose, Calif., U.S.A.), followed by incubation with Avidin bound to magnetic microbeads and passage through a magnetic column (Miltenyi Biotec, Auburn, Calif., U.S.A.). […]\nPeripheral responses to relapsing epitopes are assessed by the analysis of delayed type hypersensitivity (DTH). […]"}, "HIV gp120 binding to CD4": {"target": "T1, HIV gp120 binding to CD4 (Homo sapiens, UniProt P01730)", "T1 construct": "coated with 0.05 uM sCD4 (D1-D2 domains)", "assay": "gp120-HRP binding to plate-coated sCD4 (D1-D2)", "details": "0.05, 0.5 and 5 uM Salp15", "method": "Ninety-six (96) well plates were coated with 0.05 uM sCD4 (D1-D2 domains) in coating buffer (pH 9.6). The plates were washed 2× and blocked with 200 uL of PBS+10% FCS. Samples were then added containing gp120-HRP plus 0, 0.05, 0.5 and 5 uM Salp15 in PBS+10% FCS. KLH was used as negative control at 5 uM. The plates were incubated for 2 hours at room temperature and washed 4×, followed by incubation with horseradish peroxidase substrate and stop solution from KPL."}, "sCD4 D1-D4": {"target": "T2, sCD4 D1-D4 (Homo sapiens, UniProt P01730)", "T2 construct": "a sCD4 preparation that contains all four extracellular domains (D1-D4)", "assay": "Microtiter binding assay with immobilized sCD4 D1-D4", "details": "Salp15 0.4 μM; similar kinetics to D1-D2", "method": "Purified sCD4 was coated overnight at 4° C. at the indicated concentrations in 0.1M sodium carbonate buffer (pH 9.5) in 96 well plates. Equimolar amounts of lysozyme were used as a non-specific control. The wells were washed, blocked with 10% FCS/PBS for 1 hr at R.T., and incubated with Salp15 (0.4 μM) for 2 hr at 37° C. Salp15 binding was detected by incubation with horseradish peroxidase (HRP)-conjugated anti-His antibody for 1 hr followed by microwell peroxidase substrate (KPL). The reaction was stopped by adding TMB stop solution (KPL). Chemically synthesized overlapping peptides of Salp15 were purchased from GenScript Corporation (Piscataway, N.J., U.S.A). To study the binding of Salp15 and peptides to sCD4, Salp15 (5 μg) and different peptides (0.5 μg) were coated. The wells were washed and blocked prior to incubation with sCD4-HRP (Research Diagnostics Inc., Flanders, N.J., U.S.A.). For competition assays, indicated concentrations of Salp15 or P11 were added to sCD4-HRP and incubated with plate bound P11 (0.1 μg). To estimate the effect of dithiothreitol (DTT) treatment of Salp15 on binding to sCD4, 0.5 μM Salp15 was treated with 10 mM DTT overnight and immobilized onto microtiter plate followed by blocking and incubation with sCD4-HRP."}, "AP-1 DNA binding": {"tested_on": "AP-1 DNA binding", "details": "Anguita et al., 2002; cited from earlier work"}},
  "data": [
    {"substance": "Salp15: secreted salivary protein from Ixodes scapularis, SEQ ID NO: 2; recombinant His-tagged, produced in Drosophila S2 cells", "values": [
      {"measurement": "Activation of CD4+ T cells in response to new epitopes (epitope spreading)", "setting": "R-EAE in SJL/J mice; daily 50 μg Salp15 from day 10 after immunization", "value": "lowered activation"},
      {"measurement": "Degree of demyelination", "setting": "R-EAE in SJL/J mice; histology of brains and spinal cords", "value": "lower degree of demyelination"},
      {"measurement": "Inhibition of gp120 binding to CD4", "setting": "HIV gp120 binding to CD4", "value": "concentration dependent inhibition"},
      {"measurement": "Binding to sCD4 D1-D4", "setting": "sCD4 D1-D4", "value": "saturable binding"},
      {"measurement": "AP-1 DNA binding activation", "setting": "AP-1 DNA binding", "value": "does not affect"}
    ]}
  ]
}
